Consider 4 compounds from publication PMC3901077 (Journal of medicinal chemistry, 2010).

Series [1] relates to A549 human lung carcinoma cells. Description: MTT cytotoxicity assay in A549 cells. As to conditions: IC50 versus CPT. It counts as cell-based.

Read-outs that look alike come from different tables or passages of the source. Where only a bound is given, the exact number is not on record here.

Consider `CC[C@@]1(OC(=O)CN)C(=O)OCc2c1cc1n(c2=O)Cc2cc3ccccc3nc2-1` [Prodrug 2a], for which the “fold less potent than parent drug (CPT)” value in series [1] is “about 2 fold”. The “CPT reconversion rate (rank among prodrugs)” value (PB pH 6.6, 7.0 and 7.4) was “fastest”. Also, the “time for ester bond hydrolysis” value reads like this: (PB pH 6.6, 37 °C) at most 96 h; (PB pH 7.0, 37 °C) at most 96 h; (PB pH 7.4, 37 °C) at most 72 h.

Take `CC[C@@]1(OC(=O)[C@@H](C)N)C(=O)OCc2c1cc1n(c2=O)Cc2cc3ccccc3nc2-1` [Prodrug 2b]: the “fold less potent than parent drug (CPT)” value in series [1] is reported as around 20 fold. Moreover, the “time for ester bond hydrolysis” value (PB pH 6.6, 37 °C) was found to be 96 h; the “time for ester bond hydrolysis” value (PB pH 7.0, 37 °C) is 96 h; the “time for ester bond hydrolysis” value (PB pH 7.4, 37 °C) is at most 72 h.

Regarding `CC[C@@H](N)C(=O)O[C@]1(CC)C(=O)OCc2c1cc1n(c2=O)Cc2cc3ccccc3nc2-1` [Prodrug 2c], the “time for ester bond hydrolysis” value (PB pH 6.6, 37 °C) worked out at 120 h; the “time for ester bond hydrolysis” value (PB pH 7.0, 37 °C) is listed as ~ 120 h; the “time for ester bond hydrolysis” value (PB pH 7.4, 37 °C) was at most 96 h.

For the compound `CCC[C@@H](N)C(=O)O[C@]1(CC)C(=O)OCc2c1cc1n(c2=O)Cc2cc3ccccc3nc2-1` [Prodrug 2d], the “stability (rank among prodrugs)” value (PB pH 6.6, 7.0 and 7.4) was “most stable”. Moreover, the “time for ester bond hydrolysis” value (PB pH 6.6, 37 °C) is listed as 144 h; the “time for ester bond hydrolysis” value (PB pH 7.0, 37 °C) is on record as at most 120 h; the “time for ester bond hydrolysis” value (PB pH 7.4, 37 °C) is on record as at most 120 h.
